Experiment [1] has as its system weiblichen Ratten. Description: Abortive effect in an early phase post nidationem (Experiment I), treatment d 5-7 p.c., s.c. It counts as in vivo. As to conditions: frühgravide Ratte; for Abortrate: Dosierungen ≧ 1,0 mg/d, absence of implants at d 9 p.c. counted as abortion. The source says:
(§1) Zur Kennzeichnung der antigestagenen Wirkung der erfindungsgemässen Verbindungen wurde die abortive Wirkung in einer frühen Phase post nidationem (Experiment I) und in einer fortgeschrittenen Phase post nidationem (Experiment II) untersucht.
(§2) Die Versuche wurden an weiblichen Ratten im Gewicht von ca. 200 g durchgeführt. Nach erfolgter Anpaarung wurde der Schwangerschaftsbeginn durch Nachweis von Spermien in Vaginalabstrichen gesichert. Der Tag des Spermiennachweises gilt als Tag 1 der Gravidität (= d 1 p.c.).
(§3) Die Behandlung der Tiere mit der jeweils zu testenden Substanz bzw. dem Lösungsmittel erfolgte nach der Nidation der Blastocysten von d 5 p.c. bis d 7 p.c. (Experiment I) bzw. d 13 p.c. bis d 15 p.c. (Experiment II). An d 9 p.c. bzw. d 17 p.c. wurden die Tiere getötet und die Uteri auf Implantate und Resorptionsstellen hin untersucht. Von allen Uteri wurden Fotos angefertigt. Das Fehlen von Implantaten wurde als Abort gewertet.
(§4) Als Antigestagene wurden untersucht: • A: 11β-(4-Dimethylaminophenyl)-17β-hydroxy- 17a-propinyl-4,9-estradien-3-on (Referenzsubstanz). • B: 11 β-(4-Dimethylaminophenyl)-17β-hydroxy-17a- (3-hydroxypropyl)-13a-methyl-4,9-go- nadien-3-on (gemäss Erfindung). • C: 11β-(4-Dimethylaminophenyl)-17α-hydroxy-17ß- (3-hydroxypropyl)-13a-methyl-4,9-go- nadien-3-on (gemäss Erfindung).
Die Testsubstanzen wurden in einem Benzylbenzoat-Rizinusöl-Gemisch (Verhältnis 1:4) gelöst. Das Vehikelvolumen pro Einzeldosis betrug 0,2 ml. Die Behandlung erfolgte subcutan (s.c.). [drawing 1] worin [drawing 2] mit R^1 und R" in der Bedeutung von Wasserstoff oder Alkyl mit 1 bis 4 Kohlenstoffatomen oder R^I und R" unter Einschluss von N in der Bedeutung eines gesättigten 5- oder 6-gliedrigen Ringes, wobei im Ring ausser N noch ein weiteres Heteroatom wie 0, N, S enthalten sein kann, sowie die entsprechenden tertiären N-Oxide und die Säureadditionssalze, • -OR^III mit R"' in der Bedeutung von Methyl, Ethyl, Propyl, Methoxyphenyl, Allyl oder β-Dimethylaminoethyl, • R^2 ein Wasserstoffatom, eine Methyl- oder Ethylgruppe, • R^3-(CH2)n-CH3 mit n=0-4, • -(CH2)n-CH2-O(S)R^IV mit n=0-4 und R^IV in der Bedeutung von Wasserstoff oder Alkyl mit 1 bis 4 Kohlenstoffatomen, • -CH=CH-(CH2)n-OR^V mit n=1-4 und R^V in der Bedeutung von Wasserstoff, Alkyl oder Alkanoyl mit jeweils 1 bis 4 Kohlenstoffatomen, • -C≡C-X mit X in der Bedeutung von Wasserstoff, Alkyl mit 1 bis 4 Kohlenstoffatomen oder Halogen, • -(CH2)n-CH2CN mit n=0-3 oder [drawing 3] Y mit Y in der Bedeutung von Wasserstoff oder OR^v mit R^V in der oben angegebenen Bedeutung, • R^4 Hydroxy, Alkyloxy oder Alkanoyloxy mit jeweils 1 bis 4 Kohlenstoffatomen oder R^3/R4 [drawing 4] wobei R^3 in a-Stellung und R^4 in β-Stellung oder R^3 in β-Stellung und R^4 in a-Stellung zum Steroidgerüst stehen, und • R^5 ein Wasserstoffatom oder eine a- oder β-ständige Alkylgruppe mit 1 bis 4 Kohlenstoffatomen bedeuten. […]

Experiment [2] deals with weiblichen Ratten. Description: Abortive effect in an advanced phase post nidationem (Experiment II), treatment d 13-15 p.c., s.c. The experiment is classed as in vivo. The settings on record: 3-day s.c. administration of 3,0 mg/d, rat.
Text: as §1, §2, §3, §4
Die Testsubstanzen wurden in einem Benzylbenzoat-Rizinusöl-Gemisch (Verhältnis 1:4) gelöst. Das Vehikelvolumen pro Einzeldosis betrug 0,2 ml. Die Behandlung erfolgte subcutan (s.c.). […]

On to `CN(C)c1ccc([C@H]2C[C@]3(C)[C@@H](CC[C@@]3(O)CCCO)[C@@H]3CCC4=CC(=O)CCC4=C32)cc1` [B, 11 β-(4-Dimethylaminophenyl)-17β-hydroxy-17a-(3-hydroxypropyl)-13a-methyl-4,9-go-nadien-3-on], for which, in the experiment on weiblichen Ratten [1], the “Dosierung für voll abortive / maximale abortauslösende (antigestagene) Wirkung” value was ≥ 1,0 mg/d and the Abortrate is given as 4/4. In the experiment with weiblichen Ratten [2], the “Prozentsatz kompletter Aborte” value is given as 35,4%.

Take `CC#C[C@]1(O)CC[C@H]2[C@@H]3CCC4=CC(=O)CCC4=C3[C@@H](c3ccc(N(C)C)cc3)C[C@@]21C` [A, 11β-(4-Dimethylaminophenyl)-17β-hydroxy-17a-propinyl-4,9-estradien-3-on, reference compound]: in the experiment on weiblichen Ratten [1], the “Dosierung für voll abortive / maximale abortauslösende (antigestagene) Wirkung” value is given as > 3,0 mg/d. The “Prozentsatz kompletter Aborte” value in the experiment on weiblichen Ratten [2] was 3,5%.

For `CN(C)c1ccc([C@H]2C[C@]3(C)[C@@H](CC[C@]3(O)CCCO)[C@@H]3CCC4=CC(=O)CCC4=C32)cc1` [C, 11β-(4-Dimethylaminophenyl)-17α-hydroxy-17ß-(3-hydroxypropyl)-13a-methyl-4,9-go-nadien-3-on], in the experiment with weiblichen Ratten [1], the “Dosierung für voll abortive / maximale abortauslösende (antigestagene) Wirkung” value is ≥ 1,0 mg/d and the Abortrate is on record as 4/4. The “Prozentsatz kompletter Aborte” value with weiblichen Ratten [2] is given as 52,3%.

Source of the values: patent publication EP0129499B1, “13-Alpha-alkyl gonanes, their preparation and pharmaceutical compositions containing them” (SCHERING AKTIENGESELLSCHAFT, priority 1983, dated 1984).
